Converted amounts (≈) assume the structure as drawn. Where two headings read alike, the source gives them in different places.
Legend:
[1] = system: S. aureus ATCC25923; test: Broth microdilution dose-response, S. aureus ATCC25923; format: cell-based, Staphylococcus aureus; details: for MIC50: OD600 after 18–24 h, read-out: ATCC25923 MIC50; for antibacterial activity (in words): ATCC25923
Description: (§1) The antistaphylococcal activities (MIC50) of the synthesized compounds were examined via a previously described broth microdilution method against two S. aureus strains: ATCC25923, a methicillin-sensitive reference strain, and JE2, a methicillin-resistant strain of the USA300 lineage (Figure 2, Table 1).
(§2) Staphylococcus aureus USA300, a methicillin-resistant strain, was obtained from the Nebraska Transposon Mutant Library. Staphylococcus aureus ATCC25923, a pan-drug-susceptible strain, was purchased from the American Type Culture Collection (ATCC) (Manassas, VA, USA). S. aureus strains were grown in Cation-Adjusted Mueller–Hinton broth (CAMHB) (Difco) at 37 °C. Bacterial strain stocks were stored in vials with 25% glycerol at −80 °C. For each experiment, overnight cultures were prepared by inoculating a frozen bacterial strain stock in 10 mL of CAMHB medium and incubating at 37 °C in a shaking incubator (180 rpm). For the preliminary screen and dose–response experiments, 100 µL of overnight culture was inoculated into 10 mL of fresh CAMHB and incubated for 3 h at 37 °C and 180 rpm.
(§3) Antibiotic susceptibility assay was tested according to modified Clinical and Laboratory Standards Institute (CLSI) laboratory guidelines for broth microdilution assays. S. aureus was cultured in CAMHB, and bacterial cells were prepared with an OD600 of 0.005. DRC plates were prepared by adding 40 µL of bacterial suspension to each well, where 10 µL of each compound had been dispensed for […] of two-fold serial dilutions starting at […]. After incubation of the plates at 37 °C for 18–24 h with 5% CO2, the growth of S. aureus was detected by measuring the OD600nm using an Ensight (Revvity) spectrometer (Revvity, Waltham, MA, USA).
(§4) Figure 2 In vitro antibacterial activities of 2-(amino)quinazolin-4(3H)-one derivatives. S. aureus ATCC25923 (blue) and USA300 JE (orange) strains were incubated with serial dilutions of 2-(amino)quinazolin-4(3H)-one derivatives (0.19–100 µM) for 18–24 h. The dose–responses were observed by measuring OD600nm. The plots were drawn from each group of strains with nonlinear curve fits.

[2] = system: S. aureus USA300 JE2; test: Broth microdilution dose-response, S. aureus USA300 JE2 (MRSA); format: cell-based, Staphylococcus aureus; details: for MIC50: Staphylococcus aureus, USA300, USA300 JE2, methicillin-resistant, OD600 after 18–24 h, read-out: USA300 MIC50; for antibacterial activity (in words): JE2; for fold better antibacterial activity against JE2 compared to compound 1: JE2, versus compound 1
Description: as §1, §2, §3, §4

[3] = system: HepG2 cells; test: In vitro cytotoxicity, HepG2 viability (resazurin); format: cell-based, human; details: Homo sapiens, HepG2, 24 h, HepG2 cells, 24 h, resazurin; read-out: HepG2 IC50
Experimental: The in vitro cytotoxicity of the compounds was evaluated by measuring the viability of HepG2 cells, a human liver cell line, following treatment in a dose–response manner, as previously described. […] The efficacy window was calculated as the ratio of IC50 in HepG2 cells to MIC50 against JE2.
To test cytotoxicity with compounds, the human liver cell line HepG2 (ATCC #HB-8065) was used for the assay. HepG2 was cultured in DMEM with 10% fetal bovine serum (FBS) in a 96-well microplate at 37 °C and 5% CO2. HepG2 cells were seeded at a final density of 5 × 10^4 cells/well, and DMEM-containing diluted compounds were added and incubated on the plates at 37 °C in 5% CO2 for 24 h. After that, resazurin (final concentration, 0.1 mg/mL) was added to each well and incubated on the plates at 37 °C in 5% CO2 for 2 h. To detect the fluorescence at 530 nm excitation and 590 nm emission, an Ensight multimode plate reader was used (Revvity, Waltham, MA, USA).

[4] = system: S. aureus USA300 JE2 expressing GFP in H460 cells; test: microbe, parasite or virus in culture; format: cell-based, Staphylococcus aureus; details: for MIC50: Staphylococcus aureus, USA300, 24 h, read-out: H460 Assay MIC50 (MIC50 ex vivo)
Description: Staphylococcus aureus, including MRSA, can invade host cells and replicate intracellularly, which complicates treatment with current therapies. To evaluate the intracellular antibacterial activities of the selected compounds, the fifteen compounds tested for cytotoxicity were further assessed using a cell infection model based on H460 human lung epithelial cells, which mimic MRSA-mediated pneumonia. H460 cells were infected with the USA300 JE2 expressing green fluorescent protein (GFP) and subsequently treated with the compounds in a dose–response manner, along with three reference antibiotics: vancomycin, linezolid, and erythromycin. After 24 h of incubation, bacterial loads were quantified by measuring GFP fluorescence in each well. MIC50 values determined in the H460 infection model (MIC50 ex vivo) were generally higher than those obtained from the in vitro tests, likely due to either limited compound penetration into host cells or reduced antibacterial effect of the compounds against intracellular bacteria (Figure 3, Table 2). […] These findings underscore the potential of compound 6y as a promising lead for further development as a novel antistaphylococcal agent.
To see the ex vivo antimicrobial activity of the compound, the human lung carcinoma cell line H460 (ATCC #HTB-177) was used. The H460 cells were cultured in RPMI 1640 medium with 10% fetal bovine serum (FBS) and in a 96-well microplate at 37 °C and 5% CO2. Cell lines were cultured for 2 days, until they reached full confluence in the well. S. aureus (USA300-containing and pCM29-encoding GFP) was cultured in CAMHB with 10 µg/mL of chloramphenicol, and bacterial cells were harvested. After washing the bacterial cells with phosphate-buffered saline (PBS) and suspending them in RPMI, infected H460 cells with S. aureus (1 × 10^7 CFU) and incubated them for 2.5 h. Samples were washed three times with PBS. Then, cells were treated with gentamicin (50 µg/mL of gentamicin in RPMI) and incubated for 1 h. Samples were washed with PBS, RPMI-containing diluted compounds were added, and then they were incubated at 37 °C in 5% CO2 for 24 h. To detect the Green fluorescent protein (GFP) signal, an Ensight multimode plate reader and Opera Phenix Plus (Revvity, Waltham, MA, USA) were used.
Ex vivo infection model images were generated using the Opera Phenix Plus high-content imaging system. Images were obtained by a confocal microscope with a 20× water objective lens. To detect the bacteria fluorescence signal (GFP), the Alexa 488 channel (488 nm laser/500–550 filter, Thermo Fisher Scientific, Waltham, MA, USA) was used, and the brightfield channel was used for H460 cell images.
Figure 3 Antibacterial activities of 2-(amino)quinazolin-4(3H)-one derivatives in the H460 infection model. H460 cells were infected with S. aureus USA300 JE strain expressing GFP, followed by treatment with serial dilutions of 2-(amino)quinazolin-4(3H)-one derivatives. After incubation at 37 °C for 24 h with 5% CO2, fluorescence signals of the bacteria were detected at 488 nm/510 nm using a multilabel plate reader.

[5] = Staphylococcus aureus, ATCC25923, methicillin-sensitive strain

Compound	MIC50 [1, 5] [µM]	MIC50 [2] [µM]	antibacterial activity (in words) [1]	antibacterial activity (in words) [2]	MIC50 ([1]; methicillin-sensitive strain) [µM]	fold better antibacterial activity against JE2 compared to compound 1 [2]	IC50 [3] [µM]	MIC50 [4] [µM]	H460 Assay MIC50 (MIC50 ex vivo) ([4]; H460 cells infected with USA300 JE2-GFP, 24 h, GFP fluorescence) [µM]
O=c1[nH]c(Nc2cc(Cl)cc(Cl)c2)nc2c(Cl)c(Cl)ccc12 [6a, 7,8-Dichloro-2-((3,5-dichlorophenyl)amino)quinazolin-4(3H)-one]	10.8 (≈ 4.05 µg/mL)	6.9 (≈ 2.59 µg/mL)							
O=c1[nH]c(Nc2cc(Cl)cc(Cl)c2)nc2cc(N3CCOCC3)ccc12 [6b, 2-((3,5-Dichlorophenyl)amino)-7-morpholinoquinazolin-4(3H)-one]	> 100	> 100	complete abolition of antibacterial activity	complete abolition of antibacterial activity					
COc1cc2nc(Nc3cc(Cl)cc(Cl)c3)[nH]c(=O)c2cc1OC [6c, 2-((3,5-Dichlorophenyl)amino)-6,7-dimethoxyquinazolin-4(3H)-one]	> 100	> 100	complete abolition of antibacterial activity	complete abolition of antibacterial activity					
COc1ccc2c(=O)[nH]c(Nc3cc(Cl)cc(Cl)c3)nc2c1 [6d, 2-((3,5-Dichlorophenyl)amino)-7-methoxyquinazolin-4(3H)-one]	> 100	> 100	complete abolition of antibacterial activity	complete abolition of antibacterial activity					
O=c1[nH]c(Nc2cc(Cl)cc(Cl)c2)nc2cc([N+](=O)[O-])ccc12 [6e, 2-((3,5-Dichlorophenyl)amino)-7-nitroquinazolin-4(3H)-one]	3 to 6 (≈ 1.05 to 2.11 µg/mL)				3.0 (≈ 1.05 µg/mL)	at least 6.5 fold	9.3	68.8 (≈ 24.2 µg/mL)	
O=c1[nH]c(Nc2cc(Cl)cc(Cl)c2)nc2c(Br)cc(Br)cc12 [6f, 6,8-Dibromo-2-((3,5-dichlorophenyl)amino)quinazolin-4(3H)-one]	3 to 6 (≈ 1.39 to 2.78 µg/mL)				6.0 (≈ 2.78 µg/mL)	at least 6.5 fold	9.6	8.7 (≈ 4.04 µg/mL)	
O=c1[nH]c(Nc2cc(Cl)cc(Cl)c2)nc2cc(F)c(F)cc12 [6g, 2-((3,5-Dichlorophenyl)amino)-6,7-difluoroquinazolin-4(3H)-one]	3 to 6 (≈ 1.03 to 2.05 µg/mL)				4.0 (≈ 1.37 µg/mL)	at least 6.5 fold	12.9	25.3 (≈ 8.66 µg/mL)	
O=c1[nH]c(Nc2ccccc2)nc2cc(Cl)ccc12 [6m, 7-Chloro-2-(phenylamino)quinazolin-4(3H)-one]	> 100	> 100	complete loss of activity	complete loss of activity					
O=c1[nH]c(Nc2cccc(F)c2)nc2cc(Cl)ccc12 [6n, 7-Chloro-2-((3-fluorophenyl)amino)quinazolin-4(3H)-one]							19.7	43.8 (≈ 12.7 µg/mL)	
O=c1[nH]c(Nc2ccc(F)cc2F)nc2cc(Cl)ccc12 [6o, 7-Chloro-2-((2,4-difluorophenyl)amino)quinazolin-4(3H)-one]	> 100	> 100	complete loss of activity	complete loss of activity					
COc1cccc(Nc2nc3cc(Cl)ccc3c(=O)[nH]2)c1 [6p, 7-Chloro-2-((3-methoxyphenyl)amino)quinazolin-4(3H)-one]	35.1 (≈ 10.6 µg/mL)	24.9 (≈ 7.51 µg/mL)	Decreased antibacterial activities	Decreased antibacterial activities					
O=c1[nH]c(Nc2cccc(C(F)(F)F)c2)nc2cc(Cl)ccc12 [6r, 7-Chloro-2-((3-(trifluoromethyl)phenyl)amino)quinazolin-4(3H)-one]	2.1 to 4.5 (≈ 0.713 to 1.53 µg/mL)				3.1 (≈ 1.05 µg/mL)		15.1	35.8 (≈ 12.2 µg/mL)	
O=c1[nH]c(NCC2CCCCC2)nc2cc(Cl)ccc12 [6s, 7-Chloro-2-((cyclohexylmethyl)amino)quinazolin-4(3H)-one]	35.5 (≈ 10.4 µg/mL)	18.1 (≈ 5.28 µg/mL)	Decreased antibacterial activities	Decreased antibacterial activities					
O=c1[nH]c(Nc2ccccc2Cl)nc2cc(Cl)ccc12 [6t, 7-Chloro-2-((2-chlorophenyl)amino)quinazolin-4(3H)-one]	> 100	> 100	complete loss of activity	complete loss of activity					
O=c1[nH]c(NCc2cc(F)cc(F)c2)nc2cc(Cl)ccc12 [6w, 7-Chloro-2-((3,5-difluorobenzyl)amino)quinazolin-4(3H)-one]	> 100	> 100	complete loss of activity	complete loss of activity					
O=c1[nH]c(Nc2cc(Cl)cc(Cl)c2)nc2c(Cl)ccc(Cl)c12 [compound 1, 5,8-Dichloro-2-((3,5-dichlorophenyl)amino)quinazolin-4(3H)-one]	3.9 (≈ 1.46 µg/mL)	12.9 (≈ 4.84 µg/mL)							
CC(=O)NC[C@H]1CN(c2ccc(N3CCOCC3)c(F)c2)C(=O)O1 [linezolid, reference compound]									1.2
